Assay results taken from ChEMBL document CHEMBL1141762, “Morphinane alkaloids with cell protective effects from Sinomenium acutum” (J Nat Prod, 2005).
Activity calls are given as the source filed them. The rule behind the calls is not given here.

System: PC-12
Test: Cell protective activity against rat PC12 cells assessed as protection against H2O2-induced injury
Format: functional, cell-based

Compound	Activity
COC1=C[C@H]2[C@H]3Cc4ccc(OC)c(O)c4[C@@]2(CCN3)C[C@@H]1O	Active
COC1=C[C@]23CCN(C)[C@H](Cc4ccc(OC)c(O)c42)C3=CC1=O	Active
COC1=C[C@H]2[C@H]3Cc4ccc(OC)c(O)c4[C@@]2(CCN3)CC1=O	Active
